In patent US12023408B2, “Amorphous efinaconazole solid dispersion” (DAEBONG LS CO., LTD., priority 2019, dated 2024):

Assay: Test for the content of related substances (stability in solution, HPLC)
Assay type: physicochemical
Conditions: dissolved in a solution
Method: Experimental Example 1—Test for the Content of Related Substances […] Thereafter, the contents of related substances were measured by high-performance liquid chromatography (HPLC). The same procedure was repeated except that crystalline efinaconazole was used instead of the solid dispersion.

- content of related substances (oven at 65° C., 0 (initial)): 0
- content of related substances (oven at 65° C., 1 week): 0.45%
- content of related substances (oven at 65° C., 2 weeks): 0.54%
- content of related substances (oven at 65° C., 4 weeks): 1.53%
- content of related substances (room temperature, 0 (initial)): 0
- content of related substances (room temperature, 1 week): 0.27%
- content of related substances (room temperature, 2 weeks): 0.39%
- content of related substances (room temperature, 4 weeks): 0.40%
Compound: C=C1CCN([C@H](C)[C@](O)(Cn2cncn2)c2ccc(F)cc2F)CC1 [Efinaconazole, (2R,3R)-2-(2,4-difluorophenyl)-3-(4-methylenepiperidin-1-yl)-1-(1H-1,2,4-triazol-1-yl)butan-2-ol]
